Experiment [1] has as its target T1, steroid sulfatase (Homo sapiens, UniProt P08842).
T1 sequence (P08842 22-583): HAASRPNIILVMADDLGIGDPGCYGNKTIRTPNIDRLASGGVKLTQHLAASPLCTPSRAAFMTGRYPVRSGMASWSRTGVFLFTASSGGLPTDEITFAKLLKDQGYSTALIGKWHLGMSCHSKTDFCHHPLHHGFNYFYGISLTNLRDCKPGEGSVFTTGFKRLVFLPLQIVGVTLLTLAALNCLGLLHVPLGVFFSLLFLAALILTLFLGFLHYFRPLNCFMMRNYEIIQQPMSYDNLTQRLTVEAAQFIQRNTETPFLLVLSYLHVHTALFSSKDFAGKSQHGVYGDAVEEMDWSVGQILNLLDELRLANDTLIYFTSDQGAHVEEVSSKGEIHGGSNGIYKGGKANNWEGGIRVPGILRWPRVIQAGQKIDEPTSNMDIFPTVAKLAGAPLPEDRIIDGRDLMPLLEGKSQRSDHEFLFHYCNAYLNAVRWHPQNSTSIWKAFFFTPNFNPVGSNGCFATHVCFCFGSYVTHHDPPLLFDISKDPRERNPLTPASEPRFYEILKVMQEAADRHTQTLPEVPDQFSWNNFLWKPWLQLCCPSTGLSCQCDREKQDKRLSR
Particulars: found by M. J. Reed et al.; cited from earlier work.

Experiment [2] is described as follows: estrogenic effectiveness in vivo. Particulars: applied orally in vivo.

These results are taken from patent publication US6339079B1, “Steroid sulfamates, method for the production and use thereof” (id pharma GmbH, priority 1997, dated 2002).

`C[C@]12CC[C@@H]3c4ccc(OS(N)(=O)=O)cc4CC[C@H]3[C@@H]1CCC2=O` [estrone-3-sulfamate]: the sulfatase-inhibiting activity entry in experiment [1] is listed as “strong sulfatase-inhibiting activity”.
On to `C[C@]12CC[C@@H]3c4ccc(OS(N)(=O)=O)cc4CC[C@H]3[C@@H]1CC[C@@H]2O` [estradiol-3-sulfamate], for which, in experiment [1], the sulfatase-inhibiting activity result was “strong sulfatase-inhibiting activity”.
In the case of `C[C@]12CC[C@@H]3c4ccc(OS(N)(=O)=O)cc4CC[C@H]3[C@@H]1C[C@@H](Br)[C@@H]2O` [16α-bromoestradiol-3-sulfamate, 16α-Bromo-3-sulfamoyloxy-13β-methyl-1,3,5(10)-gonatrien-17β-ol], the “estrogenic effectiveness compared with estradiol-3-sulfamate” value in experiment [2] (relative to estradiol-3-sulfamate) is on record as “three times more effective”. Also, in experiment [2] (relative to estriol), the “estrogenic effectiveness compared with estriol” value is reported as “five times more effective”.
